How the values were obtained:
[1] = Brain-blood plasma distribution in vivo; design: species or system Sprague-Dawley rats; settings: rat, 10 mg/kg intravenously, 2 hr post-dose
Protocol: 5-Amino-anthra(9,1-cd)isothiazol-6-one was administered intravenously (10 mg/kg) into the veins of Sprague-Dawley rats. After 2 hr, blood samples were obtained from the animals and their vascular systems were perfused with approximately 100 mL of saline to rid their brains of blood. The brains were removed from the animals, weighed, and homogenized in a 50 mL conical tube containing 10 equivalents (w/v) of methanol/saline (1:1) using a Tissue Tearer (Fischer Scientific). The homogenized material was extracted by adding 600 μL of cold methanol to 250 μL of brain homogenate vortexed for 30 sec and subjected to centrifugation for 5 min. After centrifugation, 600 μL of the resulting supernatant was transferred to a clean tube and evaporated at room temperature under reduced pressure to provide a pellet. […] The brain homogenate analysis samples, plasma analysis samples, and standard analysis samples were analyzed and compared using HPLC by injecting 100 μL of a sample onto a 5 μm C-18 Luna column (4.6 mm×150 mm, commercially available from Phenomenex of Torrance, Calif.) and eluting at 1 mL/min with a linear gradient of 30% aqueous acetonitrile containing 0.1% trifluoroacetic acid to 90% aqueous acetonitrile containing 0.1% trifluoroacetic acid over 8 minutes and holding at 90% aqueous acetonitrile containing 0.1 % trifluoroacetic acid for 3 min. with absorbance detection at 450 nm. […]

[2] = Solubility in aqueous media; type: physicochemical
[3] = tested on: rat ventral mesencephalan neurons; experiment: [3H]Dopamine cell culture assay (6-OHDA neurotoxicity); type: cell-based; settings: 6-OHDA 30 μM, uptake 22 hours later
Protocol: Cultures of dopaminergic neurons were prepared according to a modification of the procedure described by Raymon and Leslie (J. Neurochem. 62:1015-1024, 1994). Time-mated pregnant rats were sacrificed on embyronic day 14-15 (crown rump length 11-12 mm) and the embryos removed by cesarean section. The ventral mesencephalon, containing the dopaminergic neurons, was dissected from each embryo. Tissue pieces from approximately 48 embryos were pooled and dissociated both enzymatically and mechanically. An aliquot from the resulting cell suspension was counted and the cells were plated in high glucose DMEM/F12 culture medium with 10% fetal bovine serum at a density of 1×10^5 cells/well of a Biocoat poly-D-lysine-coated 96-well plate. The day following plating was considered 1 day in vitro (DIV). Cells were maintained in a stable environment at 37° C., 95% humidity, and 5% CO2. A partial medium change was performed at 3 DIV. […]
[^3H]Dopamine uptake is used as a measure of the health and integrity of dopaminergic neurons in culture (Prochiantz et al., PNAS 76: 5387-5391, 1979). […] Briefly, cells treated with 6-OHDA in the presence and absence of 5-amino-anthra(9, 1-cd)isothiazol-6-one were assessed in the uptake assay 22 hrs after exposure to 6-OHDA. […] Radioactivity was removed and the cultures were washed 3x with ice cold PBS. […]

[4] = tested on: patients with macular degeneration; experiment: Macular degeneration clinical study (adjuvant to verteporfin photodynamic therapy); type: in vivo; settings: about 300 mg/day for 20 weeks as adjuvant to verteporfin photodynamic therapy
Protocol: Forty patients with macular degeneration are divided into two groups. The first group receives conventional treatment for closing the leaking choroidal vessels (characteristic of this disease) by photodynamic therapy with verteporfin (see for example Ophthalmol. 117:1329-1345 (1999). The second group receives the same conventional therapy with verteporfin with 1-(5-(1H-1,2,4-triazol-5-yl)(1H-indazol-3-yl))-3-(2-piperidylethoxy)benzene at about 300 mg/day as an adjuvant for 20 weeks.
The first group, without 1-(5-(1H 1,2,4-triazol-5-yl)( 1 H-indazol-3-yl))-3-(2-piperidylethoxy)benzene, however will experience progressive reperfusion of the ablated vessels several weeks after treatment. Progressive visual loss follows which requires the photodynamic therapy to be repeated.

With `Nc1ccc2snc3c2c1C(=O)c1ccccc1-3` [5-amino-anthra(9,1-cd)isothiazol-6-one] as the molecule, how does the brain-drug concentration [1] read?
The brain-drug concentration was “approximately 65 nmole/g”.

What about the “solubility in aqueous media” value [2] of the same molecule?
Its value is “limited solubility”.

And the “protection of dopaminergic neurons from 6-OHDA ([3H]dopamine uptake)” value [3]?
Its value is “protects rat ventral mesencephalan neurons from the toxic effects of 6-OHDA”.

With `c1cc(OCCC2CCCCN2)cc(-c2n[nH]c3ccc(-c4ncn[nH]4)cc23)c1` (stereo not shown) [1-(5-(1H-1,2,4-triazol-5-yl)(1H-indazol-3-yl))-3-(2-piperidylethoxy)benzene] as the molecule, how does the “effect on neovascular cascade / duration of photodynamic therapy effect” value [4] read?
Its value is “neovascular cascade is sufficiently hindered”.

Source: US20040092568A1, “Methods for the treatment, prevention and management of macular degeneration” (priority 2002, published 2004)
